The test system of this assay is Escherichia coli (ATCC 33456). In words: Ampicillin IC50 in E. coli. The assay is classed as cell-based. Conditions: ATCC33456. Here is the method:
The ability of antibiotics to inhibit the uptake of MDP-1 in Escherichia coli was investigated. Escherichia coli (ATCC 33456) were grown in LB medium at 37° C. under 5% CO2 to an OD600=0.5, as described above. […] Escherichia coli were incubated with ampicillin for 1 hour at 37° C. under 5% CO2, and 60 μL of MDP-1 stock solutions (1 mM in PBS) were added, generating a 20 μM MDP concentration. Escherichia coli were incubated with MDPs in the presence of ampicillin for 1 hour at 37° C. under 5% CO2 in an incubator shaker. At this stage, a small aliquot of the bacterial culture was plated to determine the CFUs of bacteria in the MDP solution. Escherichia coli were harvested by centrifuging and the resulting pellets were washed 3 times with 10 mL PBS. The intracellular fluorescence of the bacteria was determined as described in FIG. 3a.

Usually IC50 stands for the concentration needed to halve the response being measured. Lower therefore signals greater potency.

Converted amounts (≈) assume the structure as drawn.

Take `CC1(C)S[C@@H]2[C@H](NC(=O)[C@H](N)c3ccccc3)C(=O)N2[C@H]1C(=O)O` [ampicillin]: the IC50 was 3 µg/mL (≈ 8.59 µM).

For the origin of these results see patent publication US10646580B2, “Oligosaccharide conjugates for targeting bacteria and uses related thereto” (priority 2011, dated 2020).
